Drawing on PubChem BioAssay AID504896 (The Scripps Research Institute Molecular Screening Center, 2011), this text covers EC50 for five compounds.

The structures appear in SMILES notation.

This experiment deals with cAMP-dependent protein kinase type I-alpha regulatory subunit (Bos taurus) + cAMP-dependent protein kinase catalytic subunit beta (Mus musculus) (UniProt P00514+P68181). Description: PKA-R1A complex activators, counter-screen titration – biochemical, Cy5-IP20 fluorescence polarization, 1536-well, triplicate, counter-screen for PKA-R2B activator project, dose response (AID 504896). The conditions noted are these: PKA-R1A holoenzyme, activation.
Take `Nc1ncnc2c1nc(Sc1ccc(Cl)cc1)n2[C@@H]1O[C@@H]2COP(=O)(O)O[C@H]2[C@H]1O`: the EC50 was 32.7 nM. The result for `Nc1nc2c(nc(Br)n2[C@@H]2O[C@@H]3COP(=O)(O)O[C@H]3[C@H]2O)c(=O)[nH]1` reads 7830 nM. Take `CCCC(=O)Nc1ncnc2c1ncn2[C@@H]1O[C@@H]2OP(=O)(O)OC[C@H]2[C@H]1OC(=O)CCC`: the concentration giving a half-maximal response (EC50) was 6700 nM. The result for `CCOP1(=O)OCC2OC(n3cnc4c(N)ncnc43)C(O)C2O1` (stereo not given) reads 2680 nM; that for `Nc1ncnc2c1nc(Br)n2[C@@H]1O[C@@H]2COP(=O)(O)O[C@H]2[C@H]1O`, 34.4 nM.
